Data taken from ChEMBL document CHEMBL5724914, “Linking interpersonal differences in gut microbiota composition and drug biotransformation activity” (2024).

Legend:
[1] = The drug is tested on WLS-220 corresponding to human gut metagenome with ENA study accession number: PRJEB37062 and ENA sample accession number: ERS12561769 for biotransformation under anaerobic condition. The drug concentrations were measured over 9 timepoints collected between 0 and 24 hours of incubation by liquid-chromatography-coupled mass spectrometry (LC–MS); settings: 2 µM
[2] = The drug is tested on WLS-082 corresponding to human gut metagenome with ENA study accession number: PRJEB37062 and ENA sample accession number: ERS12561751 for biotransformation under anaerobic condition. The drug concentrations were measured over 9 timepoints collected between 0 and 24 hours of incubation by liquid-chromatography-coupled mass spectrometry (LC–MS); settings: 2 µM
[3] = The drug is tested on WLS-077 corresponding to human gut metagenome with ENA study accession number: PRJEB37062 and ENA sample accession number: ERS12561750 for biotransformation under anaerobic condition. The drug concentrations were measured over 9 timepoints collected between 0 and 24 hours of incubation by liquid-chromatography-coupled mass spectrometry (LC–MS); settings: 2 µM
[4] = The drug is tested on WLS-073 corresponding to human gut metagenome with ENA study accession number: PRJEB37062 and ENA sample accession number: ERS12561749 for biotransformation under anaerobic condition. The drug concentrations were measured over 9 timepoints collected between 0 and 24 hours of incubation by liquid-chromatography-coupled mass spectrometry (LC–MS); settings: 2 µM
[5] = human gut metagenome, 24 h, 2 µM
[6] = human gut metagenome, 24 h, 2 µM; remark: listed apart in the source
[7] = human gut metagenome, 24 h, 2 µM; remark: listed apart in the source
[8] = human gut metagenome, 24 h, 2 µM; remark: listed apart in the source
[9] = human gut metagenome, 24 h, 2 µM; remark: listed apart in the source
[10] = human gut metagenome, 24 h, 2 µM; remark: listed apart in the source
[11] = human gut metagenome, 24 h, 2 µM; remark: listed apart in the source
[12] = human gut metagenome, 24 h, 2 µM; remark: listed apart in the source
[13] = human gut metagenome, 24 h, 2 µM; remark: listed apart in the source
[14] = human gut metagenome, 24 h, 2 µM; remark: listed apart in the source
[15] = human gut metagenome, 24 h, 2 µM; remark: listed apart in the source
[16] = human gut metagenome, 24 h, 2 µM; remark: listed apart in the source
Further: call rule not given here.

Structure (SMILES): CN(C)CCc1c[nH]c2ccc(CS(=O)(=O)N3CCCC3)cc12 [ALMOTRIPTAN]
- Bacterial Biotransformation [1]: Compound NOT metabolized
- Bacterial Biotransformation [2]: Compound NOT metabolized
- Bacterial Biotransformation [3]: Compound NOT metabolized
- Bacterial Biotransformation [4]: Compound NOT metabolized
- Bacterial Biotransformation [5]: Compound NOT metabolized
- Bacterial Biotransformation [6]: Compound NOT metabolized
- Bacterial Biotransformation [7]: Compound NOT metabolized
- Bacterial Biotransformation [8]: Compound metabolized
- Bacterial Biotransformation [9]: Compound NOT metabolized
- Bacterial Biotransformation [10]: Compound NOT metabolized
- Bacterial Biotransformation [11]: Compound NOT metabolized
- Bacterial Biotransformation [12]: Compound metabolized
- Bacterial Biotransformation [13]: Compound metabolized
- Bacterial Biotransformation [14]: Compound NOT metabolized
- Bacterial Biotransformation [15]: Compound metabolized
- Bacterial Biotransformation [16]: Compound NOT metabolized

Structure (SMILES): CCCCC(=O)O[C@]1(C(=O)CO)[C@@H](C)C[C@H]2[C@@H]3CCC4=CC(=O)C=C[C@]4(C)[C@@]3(F)[C@@H](O)C[C@@]21C [BETAMETHASONE VALERATE]
- Bacterial Biotransformation [1]: Compound metabolized
- Bacterial Biotransformation [2]: Compound metabolized
- Bacterial Biotransformation [3]: Compound metabolized
- Bacterial Biotransformation [4]: Compound NOT metabolized
- Bacterial Biotransformation [5]: Compound NOT metabolized
- Bacterial Biotransformation [6]: Compound metabolized
- Bacterial Biotransformation [7]: Compound metabolized
- Bacterial Biotransformation [8]: Compound metabolized
- Bacterial Biotransformation [9]: Compound metabolized
- Bacterial Biotransformation [10]: Compound metabolized
- Bacterial Biotransformation [11]: Compound NOT metabolized
- Bacterial Biotransformation [12]: Compound metabolized
- Bacterial Biotransformation [13]: Compound metabolized
- Bacterial Biotransformation [14]: Compound NOT metabolized
- Bacterial Biotransformation [15]: Compound metabolized
- Bacterial Biotransformation [16]: Compound metabolized

Structure (SMILES): CC(=O)Oc1ccc(C(c2ccc(OC(C)=O)cc2)c2ccccn2)cc1 [BISACODYL]
- Bacterial Biotransformation [1]: Compound metabolized
- Bacterial Biotransformation [2]: Compound metabolized
- Bacterial Biotransformation [3]: Compound metabolized
- Bacterial Biotransformation [4]: Compound metabolized
- Bacterial Biotransformation [5]: Compound metabolized
- Bacterial Biotransformation [6]: Compound metabolized
- Bacterial Biotransformation [7]: Compound metabolized
- Bacterial Biotransformation [8]: Compound metabolized
- Bacterial Biotransformation [9]: Compound metabolized
- Bacterial Biotransformation [10]: Compound metabolized
- Bacterial Biotransformation [11]: Compound metabolized
- Bacterial Biotransformation [12]: Compound metabolized
- Bacterial Biotransformation [13]: Compound metabolized
- Bacterial Biotransformation [14]: Compound metabolized
- Bacterial Biotransformation [15]: Compound metabolized
- Bacterial Biotransformation [16]: Compound metabolized

Structure (SMILES): Cc1nc(Nc2ncc(C(=O)Nc3c(C)cccc3Cl)s2)cc(N2CCN(CCO)CC2)n1 [DASATINIB ANHYDROUS]
- Bacterial Biotransformation [1]: Compound metabolized
- Bacterial Biotransformation [2]: Compound metabolized
- Bacterial Biotransformation [3]: Compound NOT metabolized
- Bacterial Biotransformation [4]: Compound metabolized
- Bacterial Biotransformation [5]: Compound metabolized
- Bacterial Biotransformation [6]: Compound metabolized
- Bacterial Biotransformation [7]: Compound metabolized
- Bacterial Biotransformation [8]: Compound metabolized
- Bacterial Biotransformation [9]: Compound metabolized
- Bacterial Biotransformation [10]: Compound metabolized
- Bacterial Biotransformation [11]: Compound metabolized
- Bacterial Biotransformation [12]: Compound metabolized
- Bacterial Biotransformation [13]: Compound metabolized
- Bacterial Biotransformation [14]: Compound NOT metabolized
- Bacterial Biotransformation [15]: Compound metabolized
- Bacterial Biotransformation [16]: Compound metabolized

Structure (SMILES): CNCC[C@H](Oc1cccc2ccccc12)c1cccs1 [DULOXETINE]
- Bacterial Biotransformation [1]: Compound NOT metabolized
- Bacterial Biotransformation [2]: Compound NOT metabolized
- Bacterial Biotransformation [3]: Compound NOT metabolized
- Bacterial Biotransformation [4]: Compound NOT metabolized
- Bacterial Biotransformation [5]: Compound NOT metabolized
- Bacterial Biotransformation [6]: Compound NOT metabolized
- Bacterial Biotransformation [7]: Compound NOT metabolized
- Bacterial Biotransformation [8]: Compound NOT metabolized
- Bacterial Biotransformation [9]: Compound metabolized
- Bacterial Biotransformation [10]: Compound NOT metabolized
- Bacterial Biotransformation [11]: Compound NOT metabolized
- Bacterial Biotransformation [12]: Compound metabolized
- Bacterial Biotransformation [13]: Compound metabolized
- Bacterial Biotransformation [14]: Compound NOT metabolized
- Bacterial Biotransformation [15]: Compound metabolized
- Bacterial Biotransformation [16]: Compound metabolized

Structure (SMILES): COCCCC/C(=N\OCCN)c1ccc(C(F)(F)F)cc1.O=C(O)/C=C\C(=O)O [FLUVOXAMINE MALEATE]
- Bacterial Biotransformation [1]: Compound metabolized
- Bacterial Biotransformation [2]: Compound NOT metabolized
- Bacterial Biotransformation [3]: Compound NOT metabolized
- Bacterial Biotransformation [4]: Compound NOT metabolized
- Bacterial Biotransformation [5]: Compound NOT metabolized
- Bacterial Biotransformation [6]: Compound metabolized
- Bacterial Biotransformation [7]: Compound metabolized
- Bacterial Biotransformation [8]: Compound NOT metabolized
- Bacterial Biotransformation [9]: Compound NOT metabolized
- Bacterial Biotransformation [10]: Compound NOT metabolized
- Bacterial Biotransformation [11]: Compound NOT metabolized
- Bacterial Biotransformation [12]: Compound metabolized
- Bacterial Biotransformation [13]: Compound NOT metabolized
- Bacterial Biotransformation [14]: Compound NOT metabolized
- Bacterial Biotransformation [15]: Compound metabolized
- Bacterial Biotransformation [16]: Compound NOT metabolized

Structure (SMILES): CN1CCN(C2=Nc3ccccc3Oc3ccc(Cl)cc32)CC1.O=C(O)CCC(=O)O [LOXAPINE SUCCINATE]
- Bacterial Biotransformation [1]: Compound NOT metabolized
- Bacterial Biotransformation [2]: Compound NOT metabolized
- Bacterial Biotransformation [3]: Compound NOT metabolized
- Bacterial Biotransformation [4]: Compound NOT metabolized
- Bacterial Biotransformation [5]: Compound NOT metabolized
- Bacterial Biotransformation [6]: Compound NOT metabolized
- Bacterial Biotransformation [7]: Compound NOT metabolized
- Bacterial Biotransformation [8]: Compound NOT metabolized
- Bacterial Biotransformation [9]: Compound NOT metabolized
- Bacterial Biotransformation [10]: Compound NOT metabolized
- Bacterial Biotransformation [11]: Compound NOT metabolized
- Bacterial Biotransformation [12]: Compound NOT metabolized
- Bacterial Biotransformation [13]: Compound NOT metabolized
- Bacterial Biotransformation [14]: Compound NOT metabolized
- Bacterial Biotransformation [15]: Compound NOT metabolized
- Bacterial Biotransformation [16]: Compound NOT metabolized

Structure (SMILES): CCOC(=O)C1=C(C)NC(C)=C(C(=O)OC)C1c1cccc([N+](=O)[O-])c1 (stereo not drawn) [NITRENDIPINE]
- Bacterial Biotransformation [1]: Compound metabolized
- Bacterial Biotransformation [2]: Compound metabolized
- Bacterial Biotransformation [3]: Compound metabolized
- Bacterial Biotransformation [4]: Compound metabolized
- Bacterial Biotransformation [5]: Compound metabolized
- Bacterial Biotransformation [6]: Compound metabolized
- Bacterial Biotransformation [7]: Compound metabolized
- Bacterial Biotransformation [8]: Compound metabolized
- Bacterial Biotransformation [9]: Compound metabolized
- Bacterial Biotransformation [10]: Compound metabolized
- Bacterial Biotransformation [11]: Compound metabolized
- Bacterial Biotransformation [12]: Compound metabolized
- Bacterial Biotransformation [13]: Compound metabolized
- Bacterial Biotransformation [14]: Compound metabolized
- Bacterial Biotransformation [15]: Compound metabolized
- Bacterial Biotransformation [16]: Compound metabolized
